Drawing on US12018011B2, “Macrocyclic compounds and compositions, and methods of preparing and using the same” (Kura Oncology, Inc., priority 2021, dated 2024), this text covers IC50 for 23 compounds.

SMILES strings stand for the structures.

As a reminder, the IC50 is the concentration that inhibits the measured activity by half.

In the assay the target is T1, Recombinant human farnesyl transferase (FTase) (Homo sapiens, UniProt P49356).
T1 construct: purchased Crelux (Martinsried, Germany)
In words: FTase fluorescence assay (farnesylation of dansyl-GCVLS peptide). Type of assay: biochemical. As to conditions: recombinant human FTase 2.5 nM, Dansyl-GCVLS 85 nM, FPP 30 nM, 30° C., 50 minutes. The text has this: T24/83 cell line was purchased from the European Collection of Authenticated Cell Cultures (Salisbury, UK). Recombinant human farnesyl transferase (FTase) and geranylgeranyl transferase type-1 (GGTase) were obtained from Crelux (Martinsried, Germany). Dansyl labelled GCVLS peptide was purchased from Bachem (Torrance, CA), and Dansyl labelled GCVLL peptide was purchased from Bio Synthesis (Lewisville, TX). Farnesyl Pyrophosphate (FPP) and Geranylgeranyl pyrophosphate (GGPP) were purchased from Cayman (Ann Arbor, MI).
Specific biochemical activity of the compounds disclosed herein as FTase inhibitors was determined by measuring the ability of the compounds to block the farnesylation by recombinant FTase of fluorescent (i.e., dansyl-labeled) test substrates derived from the CAAX box of farnesylated proteins, such as the peptide GCVLS.
The IC50 value of the compounds disclosed herein as inhibitors of Ftase and/or GGTase, was determined by measuring the concentration (provided in nM) necessary to achieve inhibition of enzyme activity by 50% (IC50). […] Compounds having a low IC50 value against FTase, for example an IC50 (FTase)<100 nM, such as an IC50 (FTase)<10 nM, are preferred. Compounds having a low IC50 value against FTase and a high IC50 value against GGTase, for example an IC50 (FTase)<100 nM, such as an IC50 (FTase)<10 nM, and an IC50 (GGTase)>100 nM, are potent and selective inhibitors of FTase, and are particularly preferred.
The inhibition activities of the compounds disclosed herein against Ftase and GGTase were measured in the respective fluorescence assays as follows:
For the FTase assay, recombinant human FTase (2.5 nM), Dansyl labelled GCVLS peptide (85 nM), FPP (30 nM) and inhibitor were mixed in assay buffer (50 mM Tris, pH 7.5, 10 mM magnesium chloride, 10 μM zinc chloride, 0.08% CHAPS, 5 mM dithiothreitol) and incubated in a total volume of 20 μL at 30° C. for 50 minutes.
For both the FTase assay and GGTase assay, fluorescence intensity was detected (excitation at 340 nm and emission at 486 nm) using EnVision (PerkinElmer; Waltham, MA), IC50 determinations were performed using a sigmoidal dose-response model with Xlfit software (IDBS, Inc.; Boston, MA), and tipifarnib was used as a positive control. All the assay plates for each assay passed the QC criteria (S/B, Z factor).
Regarding `[2H]C([2H])([2H])n1c(=O)cc2c3cc(ccc31)[C@H](n1cnc(C)n1)c1ccc(Cl)c(c1)COc1cccc-2c1` [(S)-080, (S)-4^4-chloro-2^1-(methyl-d3)-3-(3-methyl-1H-1,2,4-triazol-1-yl)-2^1,2^2-dihydro-6-oxa-2(4,6)-quinolina-1,4(1,3)-dibenzenacyclohexaphan-2^2-one], the IC50 was 10 to 100 nM.
Regarding `Cn1cncc1[C@]1(O)c2ccc(C#N)c(c2)CCc2cccc(c2)-c2cc(=O)n(C)c3ccc1cc23` (racemic) [(S)-6, (S)-3-hydroxy-2^1-methyl-3-(1-methyl-1H-imidazol-5-yl)-2^2-oxo-2^1,2^2-dihydro-2(4,6)-quinolina-1,4(1,3)-dibenzenacyclohexaphane-4^4-carbonitrile], the IC50 was above 100 nM.
As to `[2H]C([2H])([2H])n1c(=O)cc2c3cc(ccc31)[C@](N)(c1cncn1C)c1ccc(C#N)c(c1)OCc1cccc-2c1` (racemic) [(R)-20, (R)-3-amino-2^1-(methyl-d3)-3-(1-methyl-1H-imidazol-5-yl)-2^2-oxo-2^1,2^2-dihydro-5-oxa-2(4,6)-quinolina-1,4(1,3)-dibenzenacyclohexaphane-4^4-carbonitrile], the IC50 is above 100 nM.
The figure for `[2H]C([2H])([2H])n1c(=O)cc2c3cc(ccc31)[C@](N)(c1nncn1C)c1ccc(Cl)c(c1)OCCc1cccc-2c1` (racemic) [(R)-34, (R)-3-amino-4^4-chloro-2^1-(methyl-d3)-3-(4-methyl-4H-1,2,4-triazol-3-yl)-2^1,2^2_ dihydro-5-oxa-2(4,6)-quinolina-1,4(1,3)-dibenzenacycloheptaphan-2^2-one] is above 100 nM; for `[2H]C([2H])([2H])n1c(=O)cc2c3cc(ccc31)[C@H](n1cncc1C)c1ccc(Cl)c(c1)COc1cccc-2c1` [(S)-76, (S)-4^4-chloro-2^1-(methyl-d3)-3-(5-methyl-1H-imidazol-1-yl)-2^1,2^2-dihydro-6-oxa-2(4,6)-quinolina-1,4(1,3)-dibenzenacyclohexaphan-2^2-one] it is 10 to 100 nM.
Consider `Cn1cncc1C1(N)c2ccc(Br)c(c2)COc2cccc(c2)-c2nc(N)nc3ccc1cc23` (centres unmarked) [Compound 82, 4^4-bromo-3-(1-methyl-1H-imidazol-5-yl)-6-oxa-2(4,6)-quinazolina-1,4(1,3)-dibenzenacyclohexaphane-2^2,3-diamine], for which the IC50 was at most 10 nM.
Turning to `Cn1cncc1C1(O)c2ccc(Br)c(c2)COc2cccc(c2)-c2nccc3ccc1cc23` (centres unmarked) [Compound 84, 4^4-bromo-3-(1-methyl-1H-imidazol-5-yl)-6-oxa-2(1,7)-isoquinolina-1,4(1,3)-dibenzenacyclohexaphan-3-ol], the IC50 lay in the range of 10 to 100 nM.
On to `[2H]C([2H])([2H])n1cncc1[C@]1(N)c2ccc(C#N)c(c2)COc2cccc(c2)-c2cc(C#N)nc3ccc1cc23` (racemic) [(R)-70, (R)-3-amino-3-(1-(methyl-d3)-1H-imidazol-5-yl)-6-oxa-2(4,6)-quinolina-1,4(1,3)-dibenzenacyclohexaphane-2^2,4^4-dicarbonitrile], for which the IC50 fell in the range of 10 to 100 nM.
For the compound `Cn1cncc1[C@]1(N)c2ccc(Cl)c(c2)CCc2cccc(c2)-c2cc(=O)n(C)c3ccc1cc23` (racemic) [(R)-4, (R)-3-amino-4^4-chloro-2^1-methyl-3-(1-methyl-1H-imidazol-5-yl)-2^1,2^2-dihydro-2(4,6)-quinolina-1,4(1,3)-dibenzenacyclohexaphan-2^2-one], the IC50 is above 100 nM.
For the compound `Cc1cn([C@@H]2c3ccc(C#N)c(c3)COc3cccc(c3)-c3cc(C#N)nc4ccc2cc34)cn1` [(S)-90, (S)-3-(4-methyl-1H-imidazol-1-yl)-6-oxa-2(4,6)-quinolina-1,4(1,3)-dibenzenacyclohexaphane-2^2,4^4-dicarbonitrile], the IC50 lay within 10 to 100 nM.
With `Cn1cncc1[C@]1(N)c2ccc(C#N)c(c2)COc2cccc(c2)-c2cc(OC3COC3)nc3ccc1cc23` [(R)-89, (R)-3-amino-3-(1-methyl-1H-imidazol-5-yl)-2^2-(oxetan-3-yloxy)-6-oxa-2(4,6)-quinolina-1,4(1,3)-dibenzenacyclohexaphane-4^4-carbonitrile], the IC50 lay within 10 to 100 nM.
With `Cn1cncc1C1(O)c2ccc(Br)c(c2)COc2cccc(c2)-c2cncc3ccc1cc23` (centres unmarked) [Compound 83, 4^4-bromo-3-(1-methyl-1H-imidazol-5-yl)-6-oxa-2(4,6)-isoquinolina-1,4(1,3)-dibenzenacyclohexaphan-3-ol] the figure was at most 10 nM.
The figure for `Cn1cncc1[C@]1(N)c2ccc(Cl)c(c2)COc2cccc(c2)-c2cc(C#N)nc3ccc1cc23` (racemic) [(R)-48, (R)-3-amino-4^4-chloro-3-(1-methyl-1H-imidazol-5-yl)-6-oxa-2(4,6)-quinolina-1,4(1,3)-dibenzenacyclohexaphane-2^2-carbonitrile] is 10 to 100 nM; for `[2H]C([2H])([2H])n1c(=O)cc2c3cc(ccc31)[C@H](n1ncnc1C)c1ccc(Cl)c(c1)COc1cccc-2c1` [(S)-079, (S)-4^4-chloro-2^1-(methyl-d3)-3-(5-methyl-1H-1,2,4-triazol-1-yl)-2^1,2^2-dihydro-6-oxa-2(4,6)-quinolina-1,4(1,3)-dibenzenacyclohexaphan-2^2-one] it is above 100 nM; for `COc1cc2c3cc(cnc3c1)C(O)(c1cncn1C)c1ccc(Br)c(c1)COc1cccc-2c1` (centres unmarked) [Compound 87, 4^4-bromo-2^7-methoxy-3-(1-methyl-1H-imidazol-5-yl)-6-oxa-2(5,3)-quinolina-1,4(1,3)-dibenzenacyclohexaphan-3-ol] it is above 100 nM.
Regarding `Cn1cncc1[C@]1(N)c2ccc(C#N)c(c2)OCCc2cccc(c2)-c2cc(=O)n(C)c3ccc1cc23` (racemic) [(R)-37, (R)-3-amino-2^1-methyl-3-(1-methyl-1H-imidazol-5-yl)-2^2-oxo-2^1,2^2-dihydro-5-oxa-2(4,6)-quinolina-1,4(1,3)-dibenzenacycloheptaphane-4^4-carbonitrile], the IC50 was above 100 nM.
With `Cn1cncc1[C@]1(N)c2ccc(C#N)c(c2)CCc2cccc(c2)-c2cc(C#N)nc3ccc1cc23` (racemic) [(S)-9, (S)-3-amino-3-(1-methyl-1H-imidazol-5-yl)-2(4,6)-quinolina-1,4(1,3)-dibenzenacyclohexaphane-2^2,4^4-dicarbonitrile], the IC50 was above 100 nM.
As to `Cn1cncc1[C@]1(N)c2ccc(Cl)c(c2)OCCc2cccc(c2)-c2cc(=O)n(C)c3ccc1cc23` (racemic) [(R)-27, (R)-3-amino-4^4-chloro-2^1-methyl-3-(1-methyl-1H-imidazol-5-yl)-2^1,2^2-dihydro-5-oxa-2(4,6)-quinolina-1,4(1,3)-dibenzenacycloheptaphan-2^2-one], the IC50 is above 100 nM.
For `Cn1cncc1[C@]1(N)c2ccc(C#N)c(c2)OCc2cccc(c2)-c2cc(=O)n(C)c3ccc1cc23` (racemic) [(R)-19, (R)-3-amino-2^1-methyl-3-(1-methyl-1H-imidazol-5-yl)-2^2-oxo-2^1,2^2-dihydro-5-oxa-2(4,6)-quinolina-1,4(1,3)-dibenzenacyclohexaphane-4^4-carbonitrile], the IC50 is above 100 nM.
In the case of `COc1cc2c3cc(ccc3n1)C(O)(c1cncn1C)c1ccc(C#N)c(c1)CCc1cccc-2c1` (centres unmarked) [Compound 5, 3-hydroxy-2^2-methoxy-3-(1-methyl-1H-imidazol-5-yl)-2(4,6)-quinolina-1,4(1,3)-dibenzenacyclohexaphane-4^4-carbonitrile], the IC50 was at most 10 nM.
Consider `Cc1cncn1[C@@H]1c2ccc(C#N)c(c2)COc2cccc(c2)-c2cc(C#N)nc3ccc1cc23` [(S)-91, (S)-3-(5-methyl-1H-imidazol-1-yl)-6-oxa-2(4,6)-quinolina-1,4(1,3)-dibenzenacyclohexaphane-2^2,4^4-dicarbonitrile], for which the IC50 was above 100 nM.
Take `Cn1cnnc1[C@]1(N)c2ccc(C#N)c(c2)OCCc2cccc(c2)-c2cc(=O)n(C)c3ccc1cc23` (racemic) [(R)-39, (R)-3-amino-21-methyl-3-(4-methyl-4H-1,2,4-triazol-3-yl)-2^2-oxo-2^1,2^2-dihydro-5-oxa-2(4,6)-quinolina-1,4(1,3)-dibenzenacycloheptaphane-4^4-carbonitrile]: the IC50 was above 100 nM.
Consider `[2H]C([2H])([2H])n1cncc1[C@@]1(N)c2ccc(C#N)c(c2)COc2cccc(c2)-c2cc(C#N)nc3ccc1cc23` [(S)-70, (S)-3-amino-3-(1-(methyl-d3)-1H-imidazol-5-yl)-6-oxa-2(4,6)-quinolina-1,4(1,3)-dibenzenacyclohexaphane-2^2 4^4-dicarbonitrile], for which the IC50 is at most 10 nM.
